From patent US20260125382A1, “COMPOUNDS FOR INHIBITING OR DEGRADING CDK2 AND/OR CDK9 AND MEDICINAL USE THEREOF” (KOREA RESEARCH INSTITUTE OF CHEMICAL TECHNOLOGY, priority 2022, published 2026)

Columns and labels:
[1] = target: T1, CDK2/cyclin A (Homo sapiens, UniProt P24941); experiment: CDK protein inhibition, KINOMEscan (Eurofins), CDK2/cyclin A; assay type: binding; conditions: 1 μM
T1 construct: purchased Eurofins Scientific

[2] = target: T2, CDK9 (Homo sapiens, UniProt P50750); experiment: CDK protein degradation activity (Western blotting), CDK9; assay type: cell-based; conditions: MDA-MB-231 cells, 16 hours, Western blot
T2 construct: endogenous in cells; host or cells: MDA-MB-231
Outline: (§1)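 CDK2 and CDK9 protein levels measured by Western blot with densitometry, using tubulin as loading reference. Cells were MDA-MB-231, exposed for 16 h to 100 nM, 1 μM or 10 μM compound or to DMSO.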

[3] = target: T3, CDK2 (Homo sapiens, UniProt P24941); experiment: CDK protein degradation activity (Western blotting), CDK2; assay type: cell-based; conditions: MDA-MB-231 cells, 16 hours, Western blot
T3 construct: endogenous in cells; host or cells: MDA-MB-231
Outline: as §1

T2 sequence (P50750 whole entry): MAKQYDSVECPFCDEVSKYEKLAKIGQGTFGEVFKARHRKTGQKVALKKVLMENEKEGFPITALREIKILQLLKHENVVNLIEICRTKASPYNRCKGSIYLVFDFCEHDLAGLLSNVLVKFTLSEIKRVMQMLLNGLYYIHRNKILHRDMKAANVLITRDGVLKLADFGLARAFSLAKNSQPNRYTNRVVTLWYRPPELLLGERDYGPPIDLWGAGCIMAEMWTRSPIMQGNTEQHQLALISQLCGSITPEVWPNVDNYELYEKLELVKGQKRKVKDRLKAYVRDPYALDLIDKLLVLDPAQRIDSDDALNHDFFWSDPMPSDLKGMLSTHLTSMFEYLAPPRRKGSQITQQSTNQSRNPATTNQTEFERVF

CDK2/cyclin A inhibition (%) (at concentration of 1 μM) [1] | Enzyme degradation CDK9 (% remaining) @ 0.1 μM [2] | Enzyme degradation CDK9 (% remaining) @ 1 μM [2] | Enzyme degradation CDK9 (% remaining) @ 10 μM [2] | Enzyme degradation CDK2 (% remaining) @ 0.1 μM [3] | Enzyme degradation CDK2 (% remaining) @ 1 μM [3] | Enzyme degradation CDK2 (% remaining) @ 10 μM [3] | Structure (SMILES)
86 | – | – | – | – | – | – | Cc1cccc(C(=O)NC2CC(n3cnc4c(NC5CCN(C(=O)COCCOCCNc6cccc7c6C(=O)N([C@H]6CCC(=O)NC6=O)C7=O)CC5)ncnc43)C2)n1 (stereo partly shown) [Compound 12, N-((1s,3s)-3-(6-((1-(2-(2-(2-((2-(2,6-dioxopiperidin-3-yl)-1,3-dioxoisoindolin-4-yl)amino)ethoxy)ethoxy)acetyl)piperidin-4-yl)amino)-9H-purin-9-yl)cyclobutyl)-6-methylpicolinamide]
– | 0/0/0% | 0/0/0% | 0/0/0% | 30% | 30% | 50% | Cc1cccc(C(=O)N[C@H]2C[C@@H](n3cnc4c(Nc5ccc(N6CCN(CCC7CCN(c8ccc9nnn([C@H]%10CCC(=O)NC%10=O)c(=O)c9c8)CC7)CC6)cc5)ncnc43)C2)n1 [Compound 382, N-((1s,3s)-3-(6-((4-(4-(2-(1-(3-(2,6-dioxopiperidin-3-yl)-4-oxo-3,4-dihydrobenzo[d][1,2,3]triazin-6-yl)piperidin-4-yl)ethyl)piperazin-1-yl)phenyl)amino)-9H-purin-9-yl)cyclobutyl)-6-methylpicolinamide]
– | 70% | 0% | 0% | 70% | 50% | 20% | O=C1CC[C@@H](c2ccc(OCC(=O)N3CCC4(CC(N5CCN(c6ccc(Nc7ncnc8c7ncn8C7CC(NC(=O)Cc8ccccc8)C7)cc6)CC5)C4)C3)cc2)C(=O)N1 (stereo partly shown) [Compound 268, N-((1s,3s)-3-(6-((4-(4-(6-(2-(4-(2,6-dioxopiperidin-3-yl)phenoxy)acetyl)-6-azaspiro[3.4]octan-2-yl)piperazin-1-yl)phenyl)amino)-9H-purin-9-yl)cyclobutyl)-2-phenylacetamide]
– | 0% | 0% | 10% | 50% | 50% | 100% | Cc1cccc(C(=O)N[C@H]2C[C@@H](n3cnc4c(NC5CCN(CCC6CCN(C(=O)CNc7cccc8c7C(=O)N(C7CCC(=O)NC7=O)C8=O)CC6)CC5)ncnc43)C2)n1 (stereo partly shown) [Compound 34, N-((1s,3s)-3-(6-((1-(2-(1-((2-(2,6-dioxopiperidin-3-yl)-1,3-dioxoisoindolin-4-yl)glycyl)piperidin-4-yl)ethyl)piperidin-4-yl)amino)-9H-purin-9-yl)cyclobutyl)-6-methylpicolinamide]
– | 20% | 20% | 10% | 80% | 70% | 60% | O=C1CC[C@H](N2C(=O)C=C(Nc3cccc(CC(=O)N4CCC(CN5CCN(c6ccc(Nc7ncnc8c7ncn8C7CC(NC(=O)Cc8ccccc8)C7)cc6)CC5)CC4)c3)C2=O)C(=O)N1 (stereo partly shown) [Compound 188, N-((1s,3s)-3-(6-((4-(4-((1-(2-(3-((1-(2,6-dioxopiperidin-3-yl)-2,5-dioxo-2,5-dihydro-1H-pyrrol-3-yl)amino)phenyl)acetyl)piperidin-4-yl)methyl)piperazin-1-yl)phenyl)amino)-9H-purin-9-yl)cyclobutyl)-2-phenylacetamide]
– | 100% | 10% | 0% | 30/30/30% | 30/30/30% | 30/30/30% | Cc1cccc(C(=O)N[C@H]2C[C@@H](n3cnc4c(NCc5ccc(OCCCN6CCN(C(=O)COc7cccc8c7C(=O)N([C@H]7CCC(=O)NC7=O)C8=O)CC6)cc5)ncnc43)C2)n1 [Compound 113, N-((1s,3s)-3-(6-((4-(3-(4-(2-((2-(2,6-dioxopiperidin-3-yl)-1,3-dioxoisoindolin-4-yl)oxy)acetyl)piperazin-1-yl)propoxy)benzyl)amino)-9H-purin-9-yl)cyclobutyl)-6-methylpicolinamide]
– | 0/0/0% | 0/0/0% | 0/0/0% | 30% | 30% | 50% | O=C1CCC(N2C(=O)c3cc(F)c(N4CCC5(CC4)CC(N4CCN(c6ccc(Nc7ncnc8c7ncn8[C@H]7C[C@@H](NC(=O)c8c(Cl)cccc8Cl)C7)cc6)CC4)C5)cc3C2=O)C(=O)N1 (stereo partly shown) [Compound 316, 2,6-dichloro-N-((1s,3s)-3-(6-((4-(4-(7-(2-(2,6-dioxopiperidin-3-yl)-6-fluoro-1,3-dioxoisoindolin-5-yl)-7-azaspiro[3.5]nonan-2-yl)piperazin-1-yl)phenyl)amino)-9H-purin-9-yl)cyclobutyl)benzamide]
– | 10% | 10% | 20% | 50/50/50% | 50/50/50% | 50/50/50% | O=C1CC[C@H](N2C(=O)c3cc(F)c(N4CCC(CCCN5CCN(c6ccc(Nc7ncnc8c7ncn8[C@H]7C[C@@H](NC(=O)Cc8ccccc8)C7)cc6)CC5)CC4)cc3C2=O)C(=O)N1 [Compound 458, N-((1s,3s)-3-(6-((4-(4-(3-(1-(2-(2,6-dioxopiperidin-3-yl)-6-fluoro-1,3-dioxoisoindolin-5-yl)piperidin-4-yl)propyl)piperazin-1-yl)phenyl)amino)-9H-purin-9-yl)cyclobutyl)-2-phenylacetamide]
– | 0/0/0% | 0/0/0% | 0/0/0% | 70% | 70% | 50% | O=C1CC[C@H](N2C(=O)c3cccc(NCC(=O)N4CCC(CN5CCC(CNc6ncnc7c6ncn7C6CC(NC(=O)Cc7ccccc7)C6)CC5)CC4)c3C2=O)C(=O)N1 (stereo partly shown) [Compound 184, N-((1s,3s)-3-(6-(((1-((1-((2-(2,6-dioxopiperidin-3-yl)-1,3-dioxoisoindolin-4-yl)glycyl)piperidin-4-yl)methyl)piperidin-4-yl)methyl)amino)-9H-purin-9-yl)cyclobutyl)-2-phenylacetamide]
– | 60% | 30% | 20% | 70% | 90% | 100% | O=C1CC[C@H](N2C(=O)c3cccc(N4CCC(CCCN5CCN(c6ccc(Nc7ncnc8c7ncn8[C@H]7C[C@@H](NC(=O)Cc8ccccc8)C7)cc6)CC5)CC4)c3C2=O)C(=O)N1 [Compound 261, N-((1s,3s)-3-(6-((4-(4-(3-(1-(2-(2,6-dioxopiperidin-3-yl)-1,3-dioxoisoindolin-4-yl)piperidin-4-yl)propyl)piperazin-1-yl)phenyl)amino)-9H-purin-9-yl)cyclobutyl)-2-phenylacetamide]
– | 80% | 70% | 70% | 80% | 70% | 70% | Cc1cccc(C(=O)NC2CC(n3cnc4c(NCc5cccc(N6CCN(c7cccc8c7C(=O)N([C@H]7CCC(=O)NC7=O)C8=O)CC6)c5)ncnc43)C2)n1 (stereo partly shown) [Compound 126, N-((1s,3s)-3-(6-((3-(4-(2-(2,6-dioxopiperidin-3-yl)-1,3-dioxoisoindolin-4-yl)piperazin-1-yl)benzyl)amino)-9H-purin-9-yl)cyclobutyl)-6-methylpicolinamide]
– | 60% | 70% | 10% | 50% | 20% | 70% | O=C1CC[C@@H](c2cccc(OCC(=O)N3CCC(CC(=O)N4CCN(c5ccc(Nc6ncnc7c6ncn7[C@H]6C[C@@H](NC(=O)Cc7ccccc7)C6)cc5)CC4)CC3)c2)C(=O)N1 [Compound 227, N-((1s,3s)-3-(6-((4-(4-(2-(1-(2-(3-(2,6-dioxopiperidin-3-yl)phenoxy)acetyl)piperidin-4-yl)acetyl)piperazin-1-yl)phenyl)amino)-9H-purin-9-yl)cyclobutyl)-2-phenylacetamide]
– | 10/10/10% | 10/10/10% | 10/10/10% | 50% | 40% | 40% | Cc1cccc(C(=O)NC2CC(n3cnc4c(Nc5ccc(N6CCN(CCC7CCN(C(=O)C8CCN(c9cc%10c(cc9F)C(=O)N([C@H]9CCC(=O)NC9=O)C%10=O)CC8)CC7)CC6)cc5)ncnc43)C2)n1 (stereo partly shown) [Compound 449, N-((1s,3s)-3-(6-((4-(4-(2-(1-(1-(2-(2,6-dioxopiperidin-3-yl)-6-fluoro-1,3-dioxoisoindolin-5-yl)piperidin-4-carbonyl)piperidin-4-yl)ethyl)piperazin-1-yl)phenyl)amino)-9H-purin-9-yl)cyclobutyl)-6-methylpicolinamide]
